Laboratory results published in patent US9120728B2, “Modulators of cortical dopaminergic- and NMDA-receptor-mediated glutamatergic neurotransmission” (INTEGRATIVE RESEARCH LABORATORIES SWEDEN AB, priority 2011, dated 2015).
Structures can show the parent of a compound that is named as a salt.

Tests used:
drug-naive rats = assay: Effects on spontaneous locomotion (locomotor activity in drug-naive rats); assay type: in vivo, rat; conditions: recorded for 60 minutes immediately after drug administration
Protocol: Prior art dopamine receptor antagonists are known to induce profound decrease in locomotor activity (catalepsy).
Behavioural activity is measured using eight Digiscan activity monitors (RXYZM (16) TAO, Omnitech Electronics, Columbus, Ohio, USA), connected to an Omnitech Digiscan analyzer and an Apple Macintosh computer equipped with a digital interface board (NB DIO-24, National Instruments, USA). Each activity monitor consists of a quadratic metal frame (W×L=40 cm×40 cm) equipped with photobeam sensors. During measurements of behavioural activity, a rat is put in a transparent acrylic cage (WxLxH, 40×40×30 cm) which in turn is placed in the activity monitor. Each activity monitor is equipped with three rows of infrared photobeam sensors, each row consisting of 16 sensors. Two rows are placed along the front and the side of the floor of the cage, at a 90° angle, and the third row is placed 10 cm above the floor to measure vertical activity. Photobeam sensors are spaced 2.5 cm apart. Each activity monitor is fitted in an identical sound and light attenuating box containing a weak house light and a fan.
The computer software is written using object oriented programming (LabVIEW®, National instruments, Austin, Tex., USA).
Behavioural data from each activity monitor, representing the position (horizontal center of gravity and vertical activity) of the animal at each time, are recorded at a sampling frequency of 25 Hz and collected using a custom written LABView™ application. The data from each recording session are stored and analyzed with respect to distance traveled. Each behavioural recording session lasts 60 min, starting approximately 4 min after the injection of test compound. Similar behavioural recording procedures are applied for drug-naïve and drug pre-treated rats. Rats pre-treated with d-amphetamine are given a dose of 1.5 mg/kg i.p. 10 min before the recording session in the activity monitor. Rats pre-treated with MK-801 are given a dose of 0.7 mg/kg i.p. 90 min before the recording session in the activity monitor. The results are presented as counts/60 minutes, or counts/30 minutes, in arbitrary length units. Statistical comparisons are carried out using Student's t-test against the control group. In MK-801 or amphetamine pre-treated animals, statistical comparisons are made against the MK801 or d-amphetamine controls, respectively.

[1] = test system: DOPAC (3,4-dihydroxyphenylacetic acid) in the rat striatum; assay: Increase of DOPAC (3,4-dihydroxyphenylacetic acid) in the rat striatum after systemic administration; assay type: in vivo; conditions: sc, estimated ED50 on increase of DOPAC in rat striatum, dose range 0-100 μmol/kg s.c., curve fitting
Description: The increased turnover of dopamine in the terminal areas of the ascending dopaminergic projections of the mammalian brain can be illustrated by measuring of changes in biochemical indices in the brain with the characteristic features of dopamine antagonists, e.g. producing increases in concentrations of dopamine metabolites such as 3,4-dihydroxyphenyl-acetic acid (DOPAC) in the striatum.
After the behavioural activity sessions, the rats are decapitated and their brains rapidly taken out and put on an ice-cold petri-dish. The limbic forebrain, the striatum, the frontal cortex and the remaining hemispheral parts of each rat are dissected and frozen. Each brain part is subsequently analyzed with respect to its content of monoamines and their metabolites.
The monoamine transmitter substances (NA (noradrenaline), DA (dopamine), 5-HT (serotonin)) as well as their amine (NM (normethanephrine), 3-MT (3-methoxytyramine)) and acid (DOPAC (3,4-dihydroxyphenylacetic acid), 5-HIAA (5-hydroxyindoleacetic acid), HVA (homovanillic acid)) metabolites are quantified in brain tissue homogenates by HPLC separations and electrochemical detection
The analytical method is based on two chromatographic separations dedicated for amines or acids. Two chromatographic systems share a common auto injector with a 10-port valve and two sample loops for simultaneous injection on the two systems. Both systems are equipped with a reverse phase column (Luna C18(2), dp 3 μm, 50×2 mm i.d., Phenomenex) and electrochemical detection is accomplished at two potentials on glassy carbon electrodes (MF-1000, Bioanalytical Systems, Inc.). The column effluent is passed via a T-connection to the detection cell or to a waste outlet. This is accomplished by two solenoid valves, which block either the waste or detector outlet. By preventing the chromatographic front from reaching the detector, better detection conditions are achieved. The aqueous mobile phase (0.4 ml/min) for the acid system contains citric acid 14 mM, sodium citrate 10 mM, MeOH 15% (v/v) and EDTA 0.1 mM. Detection potentials relative to Ag/AgCl reference are 0.45 and 0.60V. […] Detection potentials relative to Ag/AgCl reference are 0.45 and 0.65V.
ED50 value for the increase of DOPAC in striatum is calculated by curve fitting. The evaluation is based on 40 animals over the dose range 0, 3.7, 11, 33 and 100 μmol/kg s.c. in two combined experiments. The DOPAC levels are normalised to control and fitted by least square minimization to the function “End-(End-Control)/(1+(dose/ED50)^slope)”. The four parameters (Control, End, ED50 and Slope) are fitted with the restrictions: ED50>0, 0.5<Slope<3, 350<End<400% of control. To estimate confidence levels for the parameters, the fit is repeated 100 times with a random evenly distributed squared weight (0 to 1) for every measurement value. Presented ED50-ranges cover 95% of these values.

[2] = test system: d-amphetamine pre-treated rats; assay: Reduction of amphetamine-induced hyper-locomotion; assay type: in vivo; conditions: Rattus norvegicus; rats pre-treated with d-amphetamine 1.5 mg/kg i.p.; test compound 0-100 μmol/kg s.c.; distance during last 45 minutes of one hour
Description: The increase in activity after treatment with d-amphetamine is a standard model of hyperdopaminergia. In this model, dopaminergic neurotransmission is increased by systemic administration of d-amphetamine at a dose that is sufficiently high to produce a large increase in locomotor activity. The ability of a compound to antagonize this hyperactivity reflects anti-dopaminergic properties. Furthermore, antagonism of d-amphetamine induced hyperactivity is widely used as a standard assay of antipsychotic activity (see Psychopharmacology 4th Generation of progress Chapter 68, p 793-795).
(§1) Behavioural activity is measured using eight Digiscan activity monitors (RXYZM (16) TAO, Omnitech Electronics, Columbus, Ohio, USA), connected to an Omnitech Digiscan analyzer and an Apple Macintosh computer equipped with a digital interface board (NB DIO-24, National Instruments, USA). […]
(§2) Behavioural data from each activity monitor, representing the position (horizontal center of gravity and vertical activity) of the animal at each time, are recorded at a sampling frequency of 25 Hz and collected using a custom written LABView™ application. The data from each recording session are stored and analyzed with respect to distance traveled. […]
ED50 value for reduction of amphetamine-induced hyper-locomotion is calculated by curve fitting. […]

MK-801 pre-treated rats = assay: Reduction of MK-801-induced hyper-locomotion; assay type: in vivo; conditions: Rattus norvegicus; MK-801 0.7 mg/kg i.p. 90 minutes before test compound; locomotor activity between 45 and 60 minutes after administration; 0-100 μmol/kg s.c.
Description: Reduction of MK-801-Induced Hyper-Locomotion Another animal model of antipsychotic activity is based on administration of the glutamate antagonist MK-801. Glutamate antagonists (i.e. NMDA antagonists), can induce psychoses in man (see Psychopharmacology, 4th Generation of progress Chapter 101, p. 1205 and 1207) and induce behavioural aberrations in animals. Thus, the ability of a drug to affect schizophrenia and psychotic states can be measured using behavioural models based on experimentally-induced hypoglutamatergic states. In this study the NMDA antagonist MK-801 (0.7 mg/kg i.p.) was used to create a hypoglutamatergic state where the rats display abnormal, hyperactive behaviour.
as §1, §2

| melting point [°C] | Compound | Locomotor activity (drug-naive rats; 3.7 μmol/kg) [counts/60 min] | Locomotor activity (drug-naive rats; 11 μmol/kg) [counts/60 min] | Locomotor activity (drug-naive rats; 33 μmol/kg) [counts/60 min] | ED50 [1] [µmol/kg] | also measured |
| --- | --- | --- | --- | --- | --- | --- |
| 204 | CCCCNCCOc1cc(F)cc(S(C)(=O)=O)c1 (as salt: hydrochloric acid salt) [Example 2, N-[2-(3-fluoro-5-methylsulfonyl-phenoxy)ethyl]butan-1-amine] | – | – | – | – | – |
| 200.8 to 201.1 | CCNCCOc1cc(F)cc(S(C)(=O)=O)c1 (as salt: hydrochloric acid salt) [Example 3, N-ethyl-2-(3-fluoro-5-methylsulfonyl-phenoxy)ethanamine] | – | – | – | – | – |
| 128 to 130 | CCCN(C)CCOc1cc(F)cc(S(C)(=O)=O)c1 (as salt: hydrochloric acid salt) [Example 4, N-[2-(3-fluoro-5-methylsulfonyl-phenoxy)ethyl]-N-methyl-propan-1-amine] | – | – | – | – | – |
| 166.5 | CCC(C)NCCOc1cc(F)cc(S(C)(=O)=O)c1 (stereo not drawn) (as salt: hydrochloric acid salt) [Example 5, N-[2-(3-fluoro-5-methylsulfonyl-phenoxy)ethyl]butan-2-amine] | – | – | – | – | – |
| 207.5 | CS(=O)(=O)c1cc(F)cc(OCCNC2CCCC2)c1 (as salt: hydrochloric acid salt) [Example 6, N-[2-(3-fluoro-5-methylsulfonyl-phenoxy)ethyl]cyclopentanamine] | – | – | – | – | – |
| 190.2 | CCC(C)(C)NCCOc1cc(F)cc(S(C)(=O)=O)c1 (as salt: hydrochloric acid salt) [Example 7, N-[2-(3-fluoro-5-methylsulfonyl-phenoxy)ethyl]-2-methyl-butan-2-amine] | – | – | – | – | – |
| 202 | CS(=O)(=O)c1cc(F)cc(OCCNC2CCC2)c1 (as salt: hydrochloric acid salt) [Example 8, N-[2-(3-fluoro-5-methylsulfonyl-phenoxy)ethyl]cyclobutanamine] | – | – | – | – | – |
| 173 | CC(C)NCCOc1cc(F)cc(S(C)(=O)=O)c1 (as salt: hydrochloric acid salt) [Example 9, N-[2-(3-fluoro-5-methylsulfonyl-phenoxy)ethyl]propan-2-amine] | – | – | – | – | – |
| 194.6 | CS(=O)(=O)c1cc(F)cc(OCCN2CCCCC2)c1 (as salt: hydrochloric acid salt) [Example 10, 1-[2-(3-fluoro-5-methylsulfonyl-phenoxy)ethyl]piperidine] | – | – | – | – | – |
| 172.3 | CCN(CC)CCOc1cc(F)cc(S(C)(=O)=O)c1 (as salt: hydrochloric acid salt) [Example 11, N,N-diethyl-2-(3-fluoro-5-methylsulfonyl-phenoxy)ethanamine] | – | – | – | – | – |
| 195 to 197 | CCCNCCOc1cc(Cl)cc(S(C)(=O)=O)c1 (as salt: hydrochloric acid salt) [Example 12, N-[2-(3-chloro-5-methylsulfonyl-phenoxy)ethyl]propan-1-amine] | – | – | – | – | – |
| – | CCCCNCCOc1cc(F)cc(S(C)(=O)=O)c1 [Example 2, N-[2-(3-fluoro-5-methylsulfonyl-phenoxy)ethyl]butan-1-amine] | 13941 | 8617 | 6325 | 4.2 | – |
| – | CCCN(C)CCOc1cc(F)cc(S(C)(=O)=O)c1 [Example 4, N-[2-(3-fluoro-5-methylsulfonyl-phenoxy)ethyl]-N-methyl-propan-1-amine] | 11435 | 10025 | 12829 | 28.1 | ED50 [2]: 69 µmol/kg |
| – | CS(=O)(=O)c1cc(F)cc(OCCNC2CCC2)c1 [Example 8, N-[2-(3-fluoro-5-methylsulfonyl-phenoxy)ethyl]cyclobutanamine] | 10319 | 12888 | 12872 | 36 | ED50 (MK-801 pre-treated rats): 40 µmol/kg |
| – | CS(=O)(=O)c1cc(F)cc(OCCN2CCCCC2)c1 [Example 10, 1-[2-(3-fluoro-5-methylsulfonyl-phenoxy)ethyl]piperidine] | 11979 | 9344 | 8144 | 14.5 | – |
| – | CCCNCCOc1cc(Cl)cc(S(C)(=O)=O)c1 [Example 12, N-[2-(3-chloro-5-methylsulfonyl-phenoxy)ethyl]propan-1-amine] | 14414 | 12740 | 7826 | 10.5 | – |
